Test results published in ChEMBL document CHEMBL3769378, “Protective effect and mechanism of action of saponins isolated from the seeds of gac (Momordica cochinchinensis Spreng.) against cisplatin-induced damage in LLC-PK1 kidney cells” (2016).
The source made the active and inactive calls. No cut-off for these calls is given here.

Legend:
LLC-PK1 [1] = experiment: Renoprotective activity in pig LLC-PK1 cells assessed as reduction in cisplatin-induced toxicity by measuring cell viability at 5 to 50 uM after 24 hrs by MTT assay relative to control; assay type: functional
LLC-PK1 [2] = experiment: Renoprotective activity in pig LLC-PK1 cells assessed as reduction in cisplatin-induced toxicity by measuring cell viability after 24 hrs by MTT assay; assay type: functional, cell-based; conditions: Sus scrofa
LLC-PK1 [3] = experiment: Inhibition of cisplatin-induced JNK phosphorylation in pig LLC-PK1 cells at 50 uM after 24 hrs by Western blotting method; assay type: cell-based; conditions: Sus scrofa
LLC-PK1 [4] = experiment: Inhibition of cisplatin-induced apoptosis in pig LLC-PK1 cells at 50 uM after 24 hrs by annexin V-Alexa Fluor 488/propidium iodide staining-based flow cytometry; assay type: functional, cell-based; conditions: Sus scrofa
LLC-PK1 [5] = experiment: Inhibition of cisplatin-induced p38 phosphorylation in pig LLC-PK1 cells at 50 uM after 24 hrs by Western blotting method; assay type: cell-based; conditions: Sus scrofa
LLC-PK1 [6] = experiment: Inhibition of cisplatin-induced caspase-3 activity in pig LLC-PK1 cells assessed as decrease in cleaved caspase 3 level at 50 uM after 24 hrs by Western blotting method; assay type: functional, cell-based; conditions: Sus scrofa

Compound	Activity (LLC-PK1 [1]; Sus scrofa)	Activity (LLC-PK1 [2])	Activity (LLC-PK1 [1])	inhibition (LLC-PK1 [3])	inhibition (LLC-PK1 [4])	inhibition (LLC-PK1 [5])	inhibition (LLC-PK1 [6])
C[C@@H]1O[C@@H](O[C@H]2[C@H](O)[C@@H](C(=O)O)O[C@@H](O[C@@H]3CC[C@]4(C)[C@H](CC[C@@]5(C)[C@H]4CC=C4[C@H]6CC(C)(C)CC[C@@]6(C(=O)O[C@@H]6O[C@H](C)[C@H](O)[C@H](O)[C@H]6O[C@H]6O[C@H](C)[C@@H](O[C@H]7OC[C@H](O)[C@@H](O)[C@@H]7O)[C@H](O[C@H]7O[C@@H](CO)[C@H](O)[C@@H](O[C@@H]8OC[C@@H](O)[C@H](O)[C@H]8O)[C@@H]7O)[C@@H]6O)CC[C@@]45C)[C@@]3(C)C=O)[C@@H]2O[C@@H]2O[C@H](CO)[C@H](O)[C@H](O)[C@H]2O)[C@H](O)[C@H](O)[C@H]1O	Active						
C[C@H]1O[C@H](O[C@H]2[C@H](O)[C@@H](C(=O)O)O[C@@H](O[C@@H]3CC[C@]4(C)[C@H](CC[C@@]5(C)[C@H]4CC=C4[C@H]6CC(C)(C)CC[C@@]6(C(=O)O)CC[C@@]45C)[C@@]3(C)C=O)[C@@H]2O[C@H]2O[C@@H](CO)[C@@H](O)[C@@H](O)[C@@H]2O)[C@@H](O)[C@@H](O)[C@@H]1O		Dose-dependent effect	<=80%	Active	Active	Active	Active
C[C@H]1O[C@H](O[C@H]2[C@H](O)[C@@H](C(=O)O)O[C@@H](O[C@@H]3CC[C@]4(C)[C@H](CC[C@@]5(C)[C@H]4CC=C4[C@H]6CC(C)(C)CC[C@@]6(C(=O)O)[C@@H](O)C[C@@]45C)[C@@]3(C)C=O)[C@@H]2O[C@H]2O[C@@H](CO)[C@@H](O)[C@@H](O)[C@@H]2O)[C@@H](O)[C@@H](O)[C@@H]1O		Dose-dependent effect	<=80%	Active	Active	Active	Active
